This experiment concerns the target T1, AlbS (albireticulene synthase) (Streptomyces albireticuli, UniProt A0A2A2D8W5).
T1 sequence (A0A2A2D8W5 1-369): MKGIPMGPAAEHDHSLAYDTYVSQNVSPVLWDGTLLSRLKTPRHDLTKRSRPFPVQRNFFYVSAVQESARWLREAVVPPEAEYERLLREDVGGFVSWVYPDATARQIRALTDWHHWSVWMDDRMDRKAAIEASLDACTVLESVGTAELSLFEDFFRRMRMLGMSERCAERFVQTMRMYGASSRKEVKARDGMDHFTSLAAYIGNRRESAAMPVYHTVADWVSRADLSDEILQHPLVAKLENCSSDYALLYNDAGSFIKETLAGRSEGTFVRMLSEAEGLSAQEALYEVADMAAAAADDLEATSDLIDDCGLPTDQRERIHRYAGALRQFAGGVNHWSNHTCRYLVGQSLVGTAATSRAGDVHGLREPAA
Kind of experiment: GC-MS product analysis. As to conditions: products: five sesquiterpenes (3-7). Format: biochemical.

On to `CC(C)=CCC/C(C)=C/CC/C(C)=C/COP(=O)(O)OP(=O)(O)O` [FPP], for which the GC-MS product analysis entry is reported as “GC-MS analysis revealed that FPP was converted into five sesquiterpenes”.

The record behind these values is PMC10022577 (Chem, 2023).
